How the values were obtained:
Assay type in all cases: cell-based
[1] = tested on: HCT116; test: MTs growth inhibition assay, HCT116; settings: Homo sapiens, HCT-116; Wnt/β-catenin-hyperactive, 72 h; read-out: MTs IC50 ± SD HCT116
Method: (§1) MTs cancer cell growth inhibition assays were conducted for 4 and 5. Three cancer cell lines with hyperactive Wnt/β-catenin signaling, SW480, HCT116, and MDA-MB-231. MTs cell viability assay. Colorectal cancer cell lines, SW480 and HCT116, and triple-negative breast cancer cell line MDA-MB-231 were seeded in 96-well plates at 4×10^3 cells/well, maintained overnight at 37° C., and incubated in the presence of 4 and 5 at various concentrations. Cell viability was monitored after 72 h using a freshly prepared mixture of 1 part phenazine methosulfate (PMS, Sigma) solution (0.92 mg/mL) and 19 parts 3-(4,5-dimethylthiazol-2-yl)-5-(3-carboxymethoxyphenyl)-2-(4-sulfophenyl)-2H-tetrazolium (MTs, Promega) solution (2 mg/mL). Cells were incubated in 10 μL of this solution at 37° C. for 3 h, and A490 was measured. The effect of each compound is expressed as the concentration required to reduce A490 by 50% (IC50) relative to vehicle-treated cells. Experiments were performed in triplicate.

[2] = tested on: SW480; test: MTs growth inhibition assay, SW480; settings: Homo sapiens, Wnt/β-catenin-hyperactive, 72 h, read-out: MTs IC50 ± SD SW480
Method: as §1

[3] = tested on: A549; test: MTs growth inhibition assay, A549 (Wnt-latent); settings: Homo sapiens, read-out: MTs IC50 ± SD A549
[4] = tested on: TOPFlash (three wild-type Tcf binding sites) luciferase reporter; test: Wnt-responsive TOPFlash luciferase reporter assay, β-catenin-activated HEK239; settings: 24 h treatment, read-out: TOPFlash IC50 ± SD β-catenin-activated HEK239
Method: The TOPFlash luciferase reporter assay (in which the luciferase reporter has three wild-type Tcf4 binding sites) was performed with 4 and 5. Cell transfection and luciferase assay. FuGENE6 (E269A, Promega) 96 well plate format was used for the transfection of HEK293 and SW480 cells according to the manufacturer's instruction. HEK293 cells were co-transfected with 45 ng of TOPFlash or FOPFlash reporter gene, 135 ng pcDNA3.1-β-catenin, and 20 ng of pCMV-RL normalization reporter gene. SW480 cells were co-transfected with 60 ng of the TOPFlash or FOPFlash reporter gene and 40 ng of pCMV-RL normalization reporter. Cells were cultured in DMEM and 10% FBS at 37° C. for 24 h, and different concentrations of inhibitors or DMSO was added. After 24 h, the luciferase reporter activity was measured using the Dual-Glo system (E2940, Promega). Normalized luciferase activity in response to the treatment with 4 and 5 was compared with that obtained from the cells treated with DMSO. Experiments were performed in triplicate.

Cl.Cl.O=C(Nc1ccc(O[C@@H]2CCNC2)c(-c2cccc(-c3nn[nH]n3)c2)c1)c1ccc(O[C@H]2CCNC2)c(-c2ccc(F)c(F)c2)c1 [Compound 4, 3′,4′-difluoro-6-(((S)-pyrrolidin-3-yl)oxy)-N-(6-(((R)-pyrrolidin-3-yl)oxy)-3′-(2H-tetrazol-5-yl)-[1,1′-biphenyl]-3-yl)-[1,1′-biphenyl]-3-carboxamide dihydrochloride]
IC50 [1]: 55 ± 7.4 µM | IC50 [2]: 41 ± 6.2 µM | IC50 [3]: > 400 µM | IC50 [4]: 25 ± 4.1 µM

Source: US20220411414A1, “INHIBITORS FOR THE B-CATENIN/B-CELL LYMPHOMA 9 (BCL9) PROTEIN-PROTEIN INTERACTION” (H. LEE MOFFITT CANCER CENTER AND RESEARCH INSTITUTE, INC., priority 2018, published 2022)
